Literature values as cited in patent US10507188B2, “Particles containing an opioid receptor antagonist and methods of use” (priority 2008, dated 2019).

Conditions: white crystalline powder, typically the bromide salt (Mallinckrodt)

C[N+]1(CC2CC2)CCC23c4c5ccc(O)c4OC2C(=O)CCC3(O)C1C5 (stereo not shown) [MNTX, N-methylnaltrexone]
solubility in water: freely soluble in water
